Measured values from publication PMC6021032, “Antimycobacterial activity of nitrogen heterocycles derivatives: 7-(pyridine-4-yl)-indolizine derivatives. Part VII^8–12” (Journal of Enzyme Inhibition and Medicinal Chemistry, 2017).
In brackets after ≈: the same amount, converted by molar mass. Read-outs that look alike come from different tables or passages of the source.

How the values were obtained:
Experiment in all cases: microbe, parasite or virus in culture
Format in all cases: cell-based, Mycobacterium tuberculosis
[1] = test system: isoniazid resistant strain INH-R1
[2] = test system: isoniazid resistant strain INH-R2
[3] = test system: rifampicin resistant strain RIF-R1
[4] = test system: rifampicin resistant strain RIF-R2
[5] = test system: fluoroquinolone resistant strain FQ-R1
[6] = Mycobacterium tuberculosis, INHR1
[7] = Mycobacterium tuberculosis, INHR2
[8] = Mycobacterium tuberculosis, RIFR1, read-out: IC50
[9] = Mycobacterium tuberculosis, RIFR1, read-out: IC90
[10] = Mycobacterium tuberculosis, RIFR1, read-out: MIC
[11] = Mycobacterium tuberculosis, RIFR2, read-out: IC50
[12] = Mycobacterium tuberculosis, RIFR2, read-out: IC90
[13] = Mycobacterium tuberculosis, RIFR2, read-out: MIC
[14] = Mycobacterium tuberculosis, FQR1, read-out: IC50
[15] = Mycobacterium tuberculosis, FQR1, read-out: IC90
[16] = Mycobacterium tuberculosis, FQR1, read-out: MIC
[17] = Mycobacterium tuberculosis, RIFR1
[18] = Mycobacterium tuberculosis, RIFR2
[19] = Mycobacterium tuberculosis, FQR1

Compound | IC50 [1, 6] [µM] | IC90 [1, 6] [µM] | MIC [1, 6] [µM] | IC50 [2, 7] [µM] | IC90 [2, 7] [µM] | MIC [2, 7] [µM] | IC50 [3, 8] [µM] | IC90 [3, 9] [µM] | MIC [3, 10] [µM] | IC50 [4, 11] [µM] | IC90 [4, 12] [µM] | MIC [4, 13] [µM] | IC50 [5, 14] [µM] | IC90 [5, 15] [µM] | MIC [5, 16] [µM] | other results
NNC(=O)c1ccncc1 [Isoniazid, reference compound] | > 200 | > 200 | > 200 | > 200 | > 200 | > 200 | 0.063 | 0.094 | 0.092 (≈ 0.0126 µg/mL) | 0.27 | 0.3 | 0.31 (≈ 0.0425 µg/mL) | 0.13 | 0.15 | 0.16 (≈ 0.0219 µg/mL) | 
CCOC(=O)c1cc(C(=O)c2ccc(Br)cc2)n2ccc(-c3cc[n+](CC(=O)c4cccc(OC)c4)cc3)cc12 [Compound 6h, 4-(3-(4-Bromobenzoyl)-1-(ethoxycarbonyl)indolizine-7-yl)-1-(2-(3-methoxyphenyl)-2-oxoethyl)pyridin-1-ium] | 18 | > 50 | > 50 | 16 | 43 | > 50 | 13 | 26 | 24 | 15 | > 50 | > 50 | 26 | > 50 | > 50 | 
C[C@H]1COc2c(N3CCN(C)CC3)c(F)cc3c(=O)c(C(=O)O)cn1c23 [Levofloxacin, levofloxacin, reference compound] | 1.9 | 3 | 2.9 (≈ 1.05 µg/mL) | 2.4 | 4.3 | 3.5 (≈ 1.26 µg/mL) | 1.6 | 2.6 | 2.7 (≈ 0.976 µg/mL) | 1.7 | 3 | 2.9 (≈ 1.05 µg/mL) | 49 | 110 | 110 (≈ 39.8 µg/mL) | 
CCOC(=O)c1cc(C(=O)c2ccc(Cl)cc2)n2ccc(-c3cc[n+](CC(=O)c4cccc(OC)c4)cc3)cc12 [Compound 6d, 4-(3-(4-Chlorobenzoyl)-1-(ethoxycarbonyl)indolizine-7-yl)-1-(2-(3-methoxyphenyl)-2-oxoethyl)pyridin-1-ium] | 14 | 36 | 28 | 15 | 35 | 30 | 12 | 24 | 22 | 12 | 14 | 16 | 21 | 32 | 32 | 
CCOC(=O)c1cc(C(=O)c2ccc(Cl)cc2)n2ccc(-c3cc[n+](CC(=O)c4ccc(C)cc4)cc3)cc12 [Compound 6i] | 13 | 23 | 22 | 9.8 | 20 | 20 | 7.7 | 15 | 15 | 12 | 22 | 22 | 11 | 28 | 27 | 
CCOC(=O)c1cc(C(=O)c2ccccc2)n2ccc(-c3cc[n+](CC(=O)c4ccc(C)cc4)cc3)cc12.[Br-] [Compound 6a, 4-(3-Benzoyl-1-(ethoxycarbonyl)indolizine-7-yl)-1-(2-oxo-2-(p-tolyl)ethyl)pyridin-1-ium bromide] | 13 | 35 | 33 | 12 | 22 | 19 | 8.3 | 13 | 14 | 12 | 29 | 31 | 15 | 32 | 31 | 
4-[3-(4-Chlorophenyl)-1-(ethoxycarbonyl)indolizine-7-yl)-1-(2-(4-methoxyphenyl)-2-oxoethyl)pyridine-1-ium bromide [Compound 6c] |  |  |  |  |  |  |  |  |  |  |  |  |  |  |  | MIC ([1]; INH-R1): 14 µM; IC50 ([1]; INH-R1, read-out: IC50): 6.9 µM; IC90 ([1]; INH-R1, read-out: IC90): 14 µM; MIC ([2]; INH-R2): 16 µM; IC50 ([2]; INH-R2, read-out: IC50): 6.2 µM; IC90 ([2]; INH-R2, read-out: IC90): 19 µM; IC50 ([3]; read-out: IC50): 6.5 µM; IC90 ([3]; read-out: IC90): 10 µM; MIC ([3]; read-out: MIC): 10 µM; IC90 ([4]; read-out: IC90): 12 µM; MIC ([4]; read-out: MIC): 13 µM; IC50 ([5]; read-out: IC50): 8 µM; IC90 ([5]; read-out: IC90): 16 µM; MIC ([5]; read-out: MIC): 16 µM
CO[C@H]1/C=C/O[C@@]2(C)Oc3c(C)c(O)c4c(O)c(c(/C=N/N5CCN(C)CC5)c(O)c4c3C2=O)NC(=O)/C(C)=C\C=C\[C@H](C)[C@H](O)[C@@H](C)[C@@H](O)[C@@H](C)[C@H](OC(C)=O)[C@@H]1C [Rifampicin, reference compound] | 0.012 | 0.031 | 0.022 (≈ 0.0181 µg/mL) | 0.007 | 0.016 | 0.013 (≈ 0.0107 µg/mL) |  |  |  |  |  |  |  |  |  | IC50 [3, 17]: 1.1 µM; IC90 [3, 17]: 3.8 µM; MIC [3, 17]: 5.3 µM (≈ 4.36 µg/mL); IC50 [4, 18]: > 50 µM; IC90 [4, 18]: > 50 µM; MIC [4, 18]: > 50 µM; IC50 [5, 19]: 0.013 µM; IC90 [5, 19]: 0.033 µM; MIC [5, 19]: 0.024 µM (≈ 0.0198 µg/mL)
